Legend:
3T3-L1 cells = assay: Inducing action on differentiation into adipocytes: amount of triglyceride in the adipocytes; type: cell-based
Method: Induction of differentiation into adipocytes was carried out by partially modifying the above-mentioned method of Rubin C. S. et al. In addition, as a compound (P001), a compound prepared in Example 4 was used. 3T3-L1 cells were suspended in a 10% (w/v) calf serum-containing Dulbecco's modified Eagle's medium containing 200 μM ascorbic acid so as to have a density of 4×10^3 cells/mL, and the suspension was put in each well of a 12-well microtiter plate in an amount of 2 mL per well. The cells were cultured at 37° C. for 7 days in the presence of 5% carbon dioxide gas. On the seventh day, the medium was exchanged with a 10% fetal bovine serum-containing Dulbecco's modified Eagle's medium containing 200 μM ascorbic acid and 0.25 μM dexamethasone, and 4 μL of a 15 mM dimethyl sulfoxide solution of the compound (P001), a 5 mM dimethyl sulfoxide solution of the compound (P001), or a 1.5 mM dimethyl sulfoxide solution of the compound (P001) was added to each well. Here, there were set a group with addition of 4 μL of a 5 mg/mL aqueous solution of insulin as a positive control, and a group with addition of dimethyl sulfoxide as a negative control. After 48 hours, the medium was exchanged with a 10% fetal bovine serum-containing Dulbecco's modified Eagle's medium containing 200 μM ascorbic acid, and 4 μL of a 15 mM dimethyl sulfoxide solution of the compound (P001), a 5 mM dimethyl sulfoxide solution of the compound (P001), or a 1.5 mM dimethyl sulfoxide solution of the compound (P001), a group with addition of 2 μL of a 5 mg/mL aqueous solution of insulin as a positive control, or a group with addition of dimethyl sulfoxide as a negative control was put to each well. The cells were cultured for additional 7 days. Here, the medium was exchanged after 2 days and after 5 days, and at that time, 4 μL of a 15 mM dimethyl sulfoxide solution of the compound (P001), a 5 mM dimethyl sulfoxide solution of the compound (P001), or a 1.5 mM dimethyl sulfoxide solution of the compound (P001), a group with addition of 2 μL of a 5 mg/mL aqueous solution of insulin as a positive control, or a group with addition of dimethyl sulfoxide as a negative control was put to each well. […]
The amount of triglyceride in the adipocytes was determined as an index for inducing differentiation into mature adipocytes, and also as the evaluation of insulin-mimetic action.
After the termination of the culture, the medium was removed, and the cells were washed twice with a phosphate buffered saline. One milliliter of a solvent of hexane:isopropanol=3:2 was added to the cells. The mixture was allowed to stand at room temperature for 30 minutes, and thereafter the supernatant was collected. The procedures were repeated again, and 2 mL of the supernatant was concentrated to dryness. The precipitates were dissolved in 100 μL of isopropanol, and the amount of triglyceride contained in 10 μL of the solution was determined using a triglyceride E-test (manufactured by Wako Pure Chemical Industries, Ltd., code 432-40201). In addition, all the determinations were carried out twice.

mouse = assay: Single-dose oral toxicity in mouse; type: in vivo; details: 1 g/kg weight
Method: No toxicity is found even when the above-mentioned effective ingredient used in the present invention is administered in an effective dose for the exhibition of its action.

[1] = tested on: mature adipocytes (3T3-L1 cells); assay: Enhancing action on glucose uptake: 2-deoxyglucose uptake into mature adipocytes; type: cell-based
Method: The induction of differentiation into mature adipocytes was carried out by partially modifying the method of Rubin C. S. et al. (JBC. 253 7570-7578, 1978). 3T3-L1 cells (ATCC CCL-92.1) were suspended in a 10% calf serum (manufactured by ICN)-containing Dulbecco's modified Eagle's medium (manufactured by Sigma, D6046) containing 200 μM ascorbic acid so as to have a density of 4×10^3 cells/mL, and the suspension was put in each well of a 12-well microtiter plate in an amount of 2 mL per well. The cells were cultured at 37° C. for 7 days in the presence of 5% carbon dioxide gas. On the seventh day, the medium was exchanged with […] of a 10% fetal bovine serum (manufactured by GIBCO)-containing Dulbecco's modified Eagle's medium containing 200 μM ascorbic acid, 0.25 μM dexamethasone, 10 μg/mL insulin (manufactured by TAKARA BIO INC.) and 0.5 mM 3-isobutyl-1-methylxanthine (manufactured by Nacalai Tesque, Inc., 19624-86). After 45 hours, the medium was exchanged with 2 mL of a 10% fetal bovine serum-containing Dulbecco's modified Eagle's medium containing 200 μM ascorbic acid and 5 μg/mL insulin. The medium was exchanged on after 2 days and 5 days, and the cells were cultured for 7 days, to give mature adipocytes.
As the evaluation of enhancing action on glucose uptake, and also as the evaluation of insulin-mimetic action, the amount of 2-deoxyglucose uptake into mature adipocytes stimulated with the sample in the adipocytes was determined.
After the termination of the culture, the medium was removed, and the cells were washed twice with a 0.1% (w/v) bovine serum albumin (manufactured by Sigma, A8022)-containing Dulbecco's modified Eagle's medium. Thereafter, 1 mL of the same medium was put to each well. The cells were cultured overnight at 37° C. in the presence of 5% carbon dioxide gas. After the overnight culture, the cells were washed twice with a HEPES buffered saline (140 mM NaCl, 5 mM KCl, 2.5 mM MgSO4, 1 mM CaCl2, 20 mM HEPES-Na (pH 7.4)), and 0.9 mL of the same buffer was added thereto. The cells were cultured at 37° C. for 75 minutes. […] […] Thereafter, 100 μL of a HEPES buffered saline containing 2-deoxy-[1,2-^3H(N)]-glucose (manufactured by PerkinElmer Life Sciences Inc., NET549A) and 1 mM 2-deoxyglucose (manufactured by Nacalai Tesque, Inc., 10722-11) was added thereto at a final concentration of 0.5 μCi/mL, and the cells were further cultured at 37° C. for 10 minutes. After the termination of the culture, the supernatant was removed, the cells were washed three times with a phosphate buffer cooled to 4° C., and 0.5 mL of a 1% Nonidet P-40-containing phosphate buffer was added to lyse the cells, whereby 2-deoxy-[1,2-^3H(N)]-glucose taken into the cells was eluted. The radioactivity was determined with a liquid scintillation counter LS6500 (manufactured by Beckmann) using 25 μL of the supernatant with Ultima Gold (manufactured by PerkinElmer Life Sciences Inc., 6013329) as a scintillation cocktail.

[2] = tested on: glucose transporter (mature adipocytes); assay: Influence of cytochalasin B on 2-deoxyglucose uptake in mature adipocytes; type: cell-based; details: cytochalasin B 40 μM, in every group (polygodial 3 μM, insulin 1 μg/mL, negative control)
Method: Specifically, as a sample, there was set a group with addition of a dimethyl sulfoxide solution of polygodial so as to have a final concentration of 3 μM. […] Furthermore, in each group, there was set a group with addition of cytochalasin B (manufactured by Nacalai Tesque, Inc., 10435-81) so as to have a final concentration 40 μM at the same time as the time of addition of the sample and insulin. Thereafter, the amount of 2-deoxy-[1,2-^3H(N)]-glucose taken into the adipocytes was determined in the same manner.

[3] = final concentration 10 μM, 3 μM or 1 μM, FIG. 2, FIG. 3
[4] = final concentration 30 μM, 10 μM or 3 μM

## CC1(C)CCCC2(C)C1=CCC(CO)=C2CO (stereo not shown) [P002, 3,5,6,7,8,8a-hexahydro-5,5,8a-trimethyl-1,2-naphthalenedimethanol]
3T3-L1 cells; final concentration 30 μM or 3 μM, FIG. 7
  biosynthesis of triglyceride (index of differentiation into mature adipocytes): induction of biosynthesis of triglyceride was found
mouse
  deaths after oral administration: no cases of deaths are found

## O=Cc1cc2ccccc2cc1C=O [naphthalene-2,3-dicarboxyaldehyde]
mouse
  deaths after oral administration: no cases of deaths are found
[1]; [3]
  2-deoxy-[1,2-3H(N)]-glucose uptake compared to the negative control: enhancement of 2-deoxy-[1,2-^3H(N)]-glucose uptake was found

## CC1(C)CCCC2(C)C1=CCC1=C2C(=O)OC1 (stereo not shown) [P003, 4,6,7,8,9,9a-hexahydro-6,6,9a-trimethyl-naphtho[1,2-c]furan-1(3H)-one]
3T3-L1 cells; [4]
  biosynthesis of triglyceride (index of differentiation into mature adipocytes): induction of biosynthesis of triglyceride was found
mouse
  deaths after oral administration: no cases of deaths are found
[1]; final concentration 30 μM or 10 μM, sample added at each exchange of BSA medium or HEPES buffered saline, FIG. 23
  2-deoxy-[1,2-3H(N)]-glucose uptake compared to the negative control: enhancement of 2-deoxy-[1,2-^3H(N)]-glucose uptake was found

## CC(=O)OCC1=CCC2C(C)(C)CCCC2(C)C1C=O (stereo not shown) [P008, 2-[(acetyloxy)methyl]-1,4,4a,5,6,7,8,8a-octahydro-5,5,8a-trimethyl-1-naphthalenecarboxyaldehyde]
3T3-L1 cells; final concentration 10 μM or 3 μM, FIG. 20
  biosynthesis of triglyceride (index of differentiation into mature adipocytes): induction of biosynthesis of triglyceride was found
mouse
  deaths after oral administration: no cases of deaths are found

## CC(=O)OCC1=CCC2C(C)(C)CCCC2(C)C1C=O (stereo not shown) [P007, 1-[(acetyloxy)methyl]-1,4,4a,5,6,7,8,8a-octahydro-5,5,8a-trimethyl-2-naphthalenecarboxyaldehyde]
3T3-L1 cells; [4]
  biosynthesis of triglyceride (index of differentiation into mature adipocytes): induction of biosynthesis of triglyceride was found
mouse
  deaths after oral administration: no cases of deaths are found

## CC1(C)CCCC2(C)C(CO)C(CO)=CCC12 (stereo not shown) [P005, 1,4,4a,5,6,7,8,8a-octahydro-5,5,8a-trimethyl-1,2-naphthalenedimethanol]
3T3-L1 cells; final concentration 30 μM or 10 μM, FIG. 14
  biosynthesis of triglyceride (index of differentiation into mature adipocytes): induction of biosynthesis of triglyceride was found
mouse
  deaths after oral administration: no cases of deaths are found

## COC(=O)C1=C(C(=O)OC)C2(C)CCCC(C)(C)C2=CC1 (stereo not shown) [P001, dimethyl 3,5,6,7,8,8a-hexahydro-5,5,8a-trimethyl-1,2-naphthalenedicarboxylate]
3T3-L1 cells; [4]
  biosynthesis of triglyceride (index of differentiation into mature adipocytes): induction of biosynthesis of triglyceride was found
mouse
  deaths after oral administration: no cases of deaths are found

## CC1(C)CCCC2(C)C3COC(=O)C3=CCC12 (stereo not shown) [P006, 5,5a,6,7,8,9,9a,9b-octahydro-6,6,9a-trimethyl-naphtho[1,2-c]furan-3(1H)-one]
3T3-L1 cells; [4]
  biosynthesis of triglyceride (index of differentiation into mature adipocytes): induction of biosynthesis of triglyceride was found
mouse
  deaths after oral administration: no cases of deaths are found

## CC(=O)O[C@@H]1C[C@@H]2[C@@]3(C)CCCC(C)(C)[C@@H]3CC[C@@]2(C)[C@@H]2CC=C(C=O)[C@H](C=O)[C@@]12C [12-epi-scalaradial]
mouse
  deaths after oral administration: no cases of deaths are found
[1]; [3]
  2-deoxy-[1,2-3H(N)]-glucose uptake compared to the negative control: enhancement of 2-deoxy-[1,2-^3H(N)]-glucose uptake was found

## CC1(C)CCCC2(C)C1CCC1(CO1)C2C/C=C(/C=O)CC=O (stereo not shown) [miogadial]
mouse
  deaths after oral administration: no cases of deaths are found

## C=C1[C@@H](C)[C@H]2[C@H](Cc3ccccc3)NC(=O)[C@]23OC(=O)/C=C/[C@H](O)CCC[C@@H](C)C/C=C/[C@H]3[C@@H]1O [cytochalasin B, reference compound]
[2]
  2-deoxy-[1,2-3H(N)]-glucose uptake on addition of cytochalasin B: almost completely inhibited

## CC1(C)C[C@H]2C=C(C=O)[C@]3(C=O)C[C@]3(C)[C@H]2C1 [isovelleral]
mouse
  deaths after oral administration: no cases of deaths are found
[1]; final concentration 3 μM or 1 μM, FIG. 24
  2-deoxy-[1,2-3H(N)]-glucose uptake compared to the negative control: enhancement of 2-deoxy-[1,2-^3H(N)]-glucose uptake was found

## CC1(C)CCC[C@]2(C)[C@H](C=O)C(C=O)=CC[C@@H]12 [epipolygodial]
mouse
  deaths after oral administration: no cases of deaths are found
[1]; final concentration 3 μM, 1 μM or 0.3 μM, FIG. 25
  2-deoxy-[1,2-3H(N)]-glucose uptake compared to the negative control: enhancement of 2-deoxy-[1,2-^3H(N)]-glucose uptake was found

## COC(=O)C1=CCC2C(C)(C)CCCC2(C)C1C(=O)OC (stereo not shown) [P004, dimethyl 1,4,4a,5,6,7,8,8a-octahydro-5,5,8a-trimethyl-1,2-naphthalenedicarboxylate]
3T3-L1 cells; final concentration 10 μM, 3 μM or 1 μM, FIG. 12
  biosynthesis of triglyceride (index of differentiation into mature adipocytes): induction of biosynthesis of triglyceride was found
mouse
  deaths after oral administration: no cases of deaths are found
[1]; final concentration 30 μM, 10 μM or 3 μM, FIG. 11
  2-deoxy-[1,2-3H(N)]-glucose uptake compared to the negative control: enhancement of 2-deoxy-[1,2-H(N)]-glucose uptake was found

From patent US20090076136A1, “THERAPEUTIC AGENT” (priority 2003, published 2009)
